Like-named read-outs stand apart in the source and are kept apart here.
Biological target: T1, human M1 receptor (hCHRM1) (Homo sapiens, UniProt P11229)
T1 construct: expressed in transfected cells; host or cells: CHO-K1
T1 sequence (P11229 1-460): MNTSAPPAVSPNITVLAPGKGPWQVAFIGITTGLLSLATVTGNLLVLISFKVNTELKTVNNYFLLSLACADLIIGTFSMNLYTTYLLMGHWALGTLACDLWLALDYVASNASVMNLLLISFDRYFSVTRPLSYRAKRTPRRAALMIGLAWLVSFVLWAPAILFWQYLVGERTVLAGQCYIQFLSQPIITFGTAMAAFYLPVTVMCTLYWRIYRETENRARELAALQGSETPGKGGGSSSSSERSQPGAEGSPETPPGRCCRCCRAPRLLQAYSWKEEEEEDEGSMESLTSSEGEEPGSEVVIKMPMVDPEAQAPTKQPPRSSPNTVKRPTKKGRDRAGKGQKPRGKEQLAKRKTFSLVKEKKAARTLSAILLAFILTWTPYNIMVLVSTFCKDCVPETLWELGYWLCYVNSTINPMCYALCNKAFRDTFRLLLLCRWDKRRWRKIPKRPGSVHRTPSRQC
Assay: Measurement of cholinergic muscarinic M1 receptor positive allosteric modulator (M1PAM) activity, calcium fluorescence (FLIPRtetra)
Assay type: cell-based
Conditions: for activity (%) at 10 μM: test compound 10 μM with acetylcholine at EC20 (final 0.6 nM), 100% = acetylcholine 1 μM, 0% = DMSO
Description: The activity of a test compound in the presence of acetylcholine at EC20 concentration (final concentration 0.6 nM), which affords an action corresponding to 20% of the maximum activity, was measured as M1PAM activity. The method is as follows. CHO-K1 cells forcibly expressing a human M1 receptor (hCHRM1) were plated on a 384-well black clear bottom plate (BD Falcon) at 5,000 cells/well, and cultured in an incubator at 37° C., 5% CO2 for 1 day. The medium in the cell plate was removed, and assay buffer A (Recording medium (DOJINDO LABORATORIES), 0.1% bovine serum albumin (BSA) (Wako Pure Chemical Industries, Ltd.), 2.5 μg/mL Fluo-4 AM (DOJINDO LABORATORIES), 0.08% Pluronic F127 (DOJINDO LABORATORIES), 1.25 mM probenecid (DOJINDO LABORATORIES)) containing a calcium indicator was added at 30 μL/well. The cells were left standing in the incubator at 37° C., 5% CO2 for 30 min, and further left standing at room temperature for 30 min. A test compound prepared by diluting with assay buffer B (HBSS (Invitrogen), 20 mM HEPES (Invitrogen), 0.1% BSA) containing 2.4 nM acetylcholine was added at 10 μL/well, and the fluorescence was measured by FLIPRtetra (Molecular Devices) for 1 min every 1 second. With the definition that the amount of change in the fluorescence on addition of acetylcholine (final concentration 1 μM) is 100% and that on addition of DMSO instead of a test compound is 0%, the activity (%) of the test compound and the inflection point in the concentration-dependent curve of the test compound were calculated as IP values.

[1] = inflection point of the concentration-dependent curve, with acetylcholine at EC20 (final 0.6 nM), CHO-K1 cells expressing hCHRM1, read-out: IP value

| Structure (SMILES) | EC50 [nM] | activity (%) at 10 μM (CHO-K1 cells expressing hCHRM1) [%] | EC50 [1] [nM] |
| --- | --- | --- | --- |
| O=C(N[C@H]1CCCC[C@@H]1O)c1cn(Cc2ccc(-n3cccn3)cc2)c2c(F)ccc(F)c2c1=O (racemic) [Example 3, 5,8-difluoro-N-[(1,2-trans)-2-hydroxycyclohexyl]-4-oxo-1-[4-(1H-pyrazol-1-yl)benzyl]-1,4-dihydroquinoline-3-carboxamide] | 8.7 | 93 |  |
| O=C(N[C@H]1CCCC[C@@H]1O)c1nn(Cc2ccc(-n3cccn3)cc2)c2ccccc2c1=O (racemic) [Example 4, N-[(1,2-trans)-2-hydroxycyclohexyl]-4-oxo-1-[4-(1H-pyrazol-1-yl)benzyl]-1,4-dihydrocinnoline-3-carboxamide] |  | 107 | 27 |
| COc1ccc(Cn2cc(C(=O)N[C@H]3CCC[C@@H]3O)c(=O)c3c(F)ccc(F)c32)cc1 (racemic) [Example 25, 5,8-difluoro-N-[(1,2-trans)-2-hydroxycyclopentyl]-1-(4-methoxybenzyl)-4-oxo-1,4-dihydroquinoline-3-carboxamide] |  | 98 | 190 |
| COc1ccc(Cn2cc(C(=O)NC3CCCCC3CO)c(=O)c3c(F)ccc(F)c32)cc1 (racemic) [Example 65, 5,8-difluoro-N-[(1,2-trans)-2-(hydroxymethyl)-cyclohexyl]-1-(4-methoxybenzyl)-4-oxo-1,4-dihydroquinoline-3-carboxamide] |  | 96 | 420 |
| COc1ccc(Cn2nc(C(=O)N[C@H]3CCOC[C@@H]3O)c(=O)c3ccccc32)cc1 (racemic) [Example 71, 1,5-anhydro-2,3-dideoxy-3-({[1-(4-methoxybenzyl)-4-oxo-1,4-dihydrocinnolin-3-yl]carbonyl}amino)-DL-threo-pentitol] |  | 97 | 16 |
| NC(=O)c1ccc(Cn2cc(C(=O)N[C@H]3CCCC[C@@H]3O)c(=O)c3ccccc32)cc1 (racemic) [Example 74, 1-(4-carbamoylbenzyl)-N-[(1,2-trans)-2-hydroxycyclohexyl]-4-oxo-1,4-dihydroquinoline-3-carboxamide] | 5.4 | 97 |  |
| NC(=O)c1ccc(Cn2nc(C(=O)N[C@H]3CCCC[C@@H]3O)c(=O)c3ccccc32)cc1 (racemic) [Example 75, 1-(4-carbamoylbenzyl)-N-[(1,2-trans)-2-hydroxycyclohexyl]-4-oxo-1,4-dihydrocinnoline-3-carboxamide] |  | 99 | 7.7 |
| O=C(N[C@H]1CCCC[C@@H]1O)c1cn(Cc2ccc(-n3cccn3)cc2)c2c(F)cccc2c1=O (racemic) [Example 80, 8-fluoro-N-[(1,2-trans)-2-hydroxycyclohexyl]-4-oxo-1-[4-(1H-pyrazol-1-yl)benzyl]-1,4-dihydroquinoline-3-carboxamide] | 21 | 92 |  |
| CC(F)(F)c1ccc(Cn2cc(C(=O)N[C@H]3CCCC[C@@H]3O)c(=O)c3ccccc32)cc1 (racemic) [Example 82, 1-[4-(1,1-difluoroethyl)-benzyl]-N-[(1,2-trans)-2-hydroxycyclohexyl]-4-oxo-1,4-dihydroquinoline-3-carboxamide] |  | 83 | 170 |
| COc1ccc(Cn2cc(C(=O)N[C@H]3CC(F)(F)CC[C@@H]3O)c(=O)c3c(F)ccc(F)c32)cc1 (racemic) [Example 84, N-[(1,2-trans)-5,5-difluoro-2-hydroxycyclohexyl]-5,8-difluoro-1-(4-methoxybenzyl)-4-oxo-1,4-dihydroquinoline-3-carboxamide] | 91 | 85 |  |
| O=C(N[C@H]1CCCC[C@@H]1O)c1cn(Cc2ccc(-c3ccn[nH]3)cc2)c2ccccc2c1=O (racemic) [Example 85, N-[(1,2-trans)-2-hydroxycyclohexyl]-4-oxo-1-[4-(1H-pyrazol-5-yl)benzyl]-1,4-dihydroquinoline-3-carboxamide] | 4.7 | 90 |  |
| NC(=O)c1ccc(Cn2cc(C(=O)N[C@H]3CCCC[C@@H]3F)c(=O)c3ccccc32)cc1 (racemic) [Example 88, 1-(4-carbamoylbenzyl)-N-[(1,2-trans)-2-fluorocyclohexyl]-4-oxo-1,4-dihydroquinoline-3-carboxamide] | 12 | 101 |  |
| Cc1cc(-c2ccc(Cn3cc(C(=O)N[C@H]4CCC[C@@H]4O)c(=O)c4ccccc43)cc2)ccn1 (racemic) [Example 93, N-[(1,2-trans)-2-hydroxycyclopentyl]-1-[4-(2-methylpyridin-4-yl)benzyl]-4-oxo-1,4-dihydroquinoline-3-carboxamide] | 12 | 95 |  |
| COc1ccc(Cn2cc(C(N)=O)c(=O)c3c(F)ccc(F)c32)cc1 [Example 1, 5,8-difluoro-1-(4-methoxybenzyl)-4-oxo-1,4-dihydroquinoline-3-carboxamide] |  | 90 | 630 |
| CNC(=O)c1cn(Cc2ccc(OC)cc2)c2c(F)ccc(F)c2c1=O [Example 7, 5,8-difluoro-1-(4-methoxybenzyl)-N-methyl-4-oxo-1,4-dihydroquinoline-3-carboxamide] |  | 71 | 3500 |
| COc1ccc(Cn2cc(C(=O)NC3CC3)c(=O)c3c(F)ccc(F)c32)cc1 [Example 8, N-cyclopropyl-5,8-difluoro-1-(4-methoxybenzyl)-4-oxo-1,4-dihydroquinoline-3-carboxamide] |  | 100 | 2000 |
| COc1ccc(Cn2cc(C(=O)NN)c(=O)c3ccccc32)cc1 [Example 13, 1-(4-methoxybenzyl)-4-oxo-1,4-dihydroquinoline-3-carbohydrazide] |  | 77 | 6100 |
| COc1ccc(Cn2cc(C(=O)NC3CCCCC3)c(=O)c3c(F)ccc(F)c32)cc1 [Example 14, N-cyclohexyl-5,8-difluoro-1-(4-methoxybenzyl)-4-oxo-1,4-dihydroquinoline-3-carboxamide] |  | 96 | 920 |
| COc1ccc(Cn2cc(C(=O)NCCO)c(=O)c3c(F)ccc(F)c32)cc1 [Example 17, 5,8-difluoro-N-(2-hydroxyethyl)-1-(4-methoxybenzyl)-4-oxo-1,4-dihydroquinoline-3-carboxamide] |  | 69 | 5800 |
| COCCNC(=O)c1cn(Cc2ccc(OC)cc2)c2c(F)ccc(F)c2c1=O [Example 20, 5,8-difluoro-1-(4-methoxybenzyl)-N-(2-methoxyethyl)-4-oxo-1,4-dihydroquinoline-3-carboxamide] |  | 72 | 5000 |
| COc1ccc(Cn2cc(C(=O)NN3CCCCC3)c(=O)c3c(F)ccc(F)c32)cc1 [Example 21, 5,8-difluoro-1-(4-methoxybenzyl)-4-oxo-N-piperidin-1-yl-1,4-dihydroquinoline-3-carboxamide] |  | 97 | 280 |
| COc1ccc(Cn2cc(C(=O)N[C@H]3CCCC[C@@H]3O)c(=O)c3c(F)ccc(F)c32)cc1 [Example 27, 5,8-difluoro-N-[(1S,2S)-2-hydroxycyclohexyl]-1-(4-methoxybenzyl)-4-oxo-1,4-dihydroquinoline-3-carboxamide] | 38 | 102 |  |
| COc1ccc(Cn2nc(C(=O)N[C@H]3CCCC[C@@H]3O)c(=O)c3ccccc32)cc1 [Example 51, N-[(1S,2S)-2-hydroxycyclohexyl]-1-(4-methoxybenzyl)-4-oxo-1,4-dihydrocinnoline-3-carboxamide] |  | 97 | 68 |
| COc1ccc(Cn2nc(C(=O)N[C@@H]3CCCC[C@H]3O)c(=O)c3ccccc32)cc1 [Example 52, N-[(1R,2R)-2-hydroxycyclohexyl]-1-(4-methoxybenzyl)-4-oxo-1,4-dihydrocinnoline-3-carboxamide] |  | 87 | 1900 |
| NC(=O)c1ccc(Cn2nc(C(N)=O)c(=O)c3ccccc32)cc1 [Example 73, 1-(4-carbamoylbenzyl)-4-oxo-1,4-dihydrocinnoline-3-carboxamide] |  | 96 | 63 |
